Results reported in US20160113931A1, “Method of treating and/or preventing neurodegenerative diseases” (University of Macau, priority 2014, published 2016).

Columns and labels:
[1] = system: zebrafish; assay: MPTP-induced dopaminergic neuron loss in zebrafish (TH whole-mount immunostaining); format: in vivo, Danio rerio; conditions: positive control, MPTP 48 h
Experimental: Zebrafish at 1 dpf were exposed to BHDPC (3, 10, 30 μM) with or without MPTP for 48 h. Then fish were fixed for whole mount immunostaining. The morphology change of dopaminergic neurons in zebrafish brain was indicated by immunostaining with antibody against tyrosine hydroxylase (TH). Statistical analysis of TH density was accessed in each 10 fish/group. […] Zebrafish at 1 dpf were exposed to different concentrations of BHDPC with or without MPTP for 48 h. Then fish were fixed for whole mount immunostaining.
(§1) The AB strain of wild type zebrafish (Danio rerio) was maintained as described in the Zebrafish Handbook. Zebrafish were staged by days post fertilization […]. For breeding, groups of male and female (3:2) adult zebrafish were placed in 10-L plastic aquarium equipped with spawning nets in the evening. In the following morning, eggs were collected from the breeding group tanks. Normally developed fertilized eggs were selected under a stereomicroscope for further studies. The MPTP manipulation was performed with appropriate safety precautions and all MPTP-containing water was bleached.
Whole-mount immunostaining in zebrafish was performed as previously described. 3 dpf Zebrafish larvae were fixed with 4% paraformaldehyde in PBS for 30 min, […] (TH) staining was performed as previously described. Briefly, zebrafish were fixed in 4% paraformaldehyde in PBS for 5 h. Fixed samples were blocked (2% lamb serum and 0.1% BSA in PBST) for 1 h at room temperature. A mouse monoclonal anti-tyrosine hydroxylase (TH) antibody (Millipore, Billerica, MD, USA) was used as the primary antibody and incubated with samples overnight at 4° C. On the next day, samples were washed six times with PBST (each wash lasted 30 min), followed by incubation with Alexa Fluor® 488 goat anti-mouse antibodies. After immunostaining, zebrafish were mounted with 3.5% methylcellulose and photographed. Semi-quantification of the area of TH^+ cells was assessed by an investigator, unaware of the drug treatment, using Image-J software. Results are expressed as percentage of area of TH^+ cells in untreated normal control groups.
In this example, the in vivo animal model was used to determine the neuroprotective effect of BHDPC. Anti-tyrosine hydroxylase (TH) whole mount immunostaining was used to determine dopaminergic neuronal populations in zebrafish larvae (FIG. 15A). TH activity is the key enzyme responsible for dopamine biosynthesis in the CNS. […] The dopamine reuptake inhibitor nomifensine (Nom), which protected against MPTP-induced neurotoxicity in vivo was used as a positive control. The treatment of larvae with 30 μM of nomifensine, a positive control drug attenuated MPTP-induced neurotoxicity, with TH^+ density […] by 30% compared to the MPTP group.
L-deprenyl, which is a substituted phenethylamine used in treatment of early Parkinson's disease, was used as a positive control.

[2] = system: zebrafish; assay: MPTP-induced deficit of locomotion behavior in zebrafish larvae; format: in vivo, Danio rerio; conditions: 150 μM L-dopa with MPTP, positive control
Experimental: Three dpf zebrafish embryos were co-incubated with 10 μM MPTP and BHDPC at the indicated concentrations for 96 hours, and zebrafish larval co-treated with MPTP and 150 μM L-dopa was used as positive control. After treatment, zebrafish were collected to perform locomotion behavior test using Viewpoint Zebrabox system and total distances travelled in 10 min were calculated.
as §1
In addition, MPTP markedly altered the swimming behavior of the zebrafish as a consequence of DA neuronal injury. […] BHDPC ameliorated MPTP-induced deficit of swimming behavior. At the same condition, MPTP-induced deficit of swimming behavior were rescued by positive controls, levodopa (L-dopa) (FIG. 16).

## C#CCN(C)[C@H](C)Cc1ccccc1 [L-deprenyl, reference compound]
[1]
  TH+ density compared to the MPTP group (FIG. 15B): significant increase

## N[C@@H](Cc1ccc(O)c(O)c1)C(=O)O [levodopa, reference compound]
[2]
  MPTP-induced deficit of swimming behavior (total distance travelled in 10 min): rescued

## CN1Cc2c(N)cccc2C(c2ccccc2)C1 (stereo not drawn) [nomifensine, reference compound]
[1]; 30 μM nomifensine
  TH+ density reduced by, compared to the MPTP group: 30%
